Test results: patent US20060045953A1 (priority 2004, published 2006)

Assays:
[1] = molecular target: T1, hT1R1/hT1R3 umami receptor (Homo sapiens, UniProt Q7RTX0+Q7RTX1); experiment: In vitro hT1R1/hT1R3 umami taste receptor activation assay (FLIPR, dose response); type: cell-based; settings: read-out: EC50 for activation of a hT1R1/hT1R3 umami receptor expressed in an HEK293 cell line
T1 construct: expressed in transfected cells; host or cells: HEK293 derivative stably expressing Gα15, clone I-17, expression induced with mifepristone
T1 sequence (Q7RTX1 21-841): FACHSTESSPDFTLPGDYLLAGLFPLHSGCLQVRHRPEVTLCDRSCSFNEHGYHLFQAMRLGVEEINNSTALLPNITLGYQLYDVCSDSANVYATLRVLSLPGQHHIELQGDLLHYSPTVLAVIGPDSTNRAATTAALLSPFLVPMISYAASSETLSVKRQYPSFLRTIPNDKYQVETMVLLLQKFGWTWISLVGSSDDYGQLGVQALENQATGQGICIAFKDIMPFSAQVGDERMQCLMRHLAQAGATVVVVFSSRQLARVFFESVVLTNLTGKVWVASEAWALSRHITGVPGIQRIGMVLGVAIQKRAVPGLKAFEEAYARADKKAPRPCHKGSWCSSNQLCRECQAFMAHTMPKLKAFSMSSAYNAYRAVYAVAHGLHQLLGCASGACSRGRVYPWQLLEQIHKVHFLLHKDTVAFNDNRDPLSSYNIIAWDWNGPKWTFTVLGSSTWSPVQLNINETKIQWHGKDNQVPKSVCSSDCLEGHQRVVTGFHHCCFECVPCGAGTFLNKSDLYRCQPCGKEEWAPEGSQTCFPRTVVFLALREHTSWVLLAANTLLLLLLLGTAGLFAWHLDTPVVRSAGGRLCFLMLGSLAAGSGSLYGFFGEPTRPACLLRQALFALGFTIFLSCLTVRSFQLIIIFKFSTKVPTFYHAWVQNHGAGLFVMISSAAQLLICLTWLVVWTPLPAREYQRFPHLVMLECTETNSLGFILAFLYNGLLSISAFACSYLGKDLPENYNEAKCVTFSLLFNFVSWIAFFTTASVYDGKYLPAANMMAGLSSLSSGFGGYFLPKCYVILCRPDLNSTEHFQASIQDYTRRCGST
T1 sequence (Q7RTX0 21-852): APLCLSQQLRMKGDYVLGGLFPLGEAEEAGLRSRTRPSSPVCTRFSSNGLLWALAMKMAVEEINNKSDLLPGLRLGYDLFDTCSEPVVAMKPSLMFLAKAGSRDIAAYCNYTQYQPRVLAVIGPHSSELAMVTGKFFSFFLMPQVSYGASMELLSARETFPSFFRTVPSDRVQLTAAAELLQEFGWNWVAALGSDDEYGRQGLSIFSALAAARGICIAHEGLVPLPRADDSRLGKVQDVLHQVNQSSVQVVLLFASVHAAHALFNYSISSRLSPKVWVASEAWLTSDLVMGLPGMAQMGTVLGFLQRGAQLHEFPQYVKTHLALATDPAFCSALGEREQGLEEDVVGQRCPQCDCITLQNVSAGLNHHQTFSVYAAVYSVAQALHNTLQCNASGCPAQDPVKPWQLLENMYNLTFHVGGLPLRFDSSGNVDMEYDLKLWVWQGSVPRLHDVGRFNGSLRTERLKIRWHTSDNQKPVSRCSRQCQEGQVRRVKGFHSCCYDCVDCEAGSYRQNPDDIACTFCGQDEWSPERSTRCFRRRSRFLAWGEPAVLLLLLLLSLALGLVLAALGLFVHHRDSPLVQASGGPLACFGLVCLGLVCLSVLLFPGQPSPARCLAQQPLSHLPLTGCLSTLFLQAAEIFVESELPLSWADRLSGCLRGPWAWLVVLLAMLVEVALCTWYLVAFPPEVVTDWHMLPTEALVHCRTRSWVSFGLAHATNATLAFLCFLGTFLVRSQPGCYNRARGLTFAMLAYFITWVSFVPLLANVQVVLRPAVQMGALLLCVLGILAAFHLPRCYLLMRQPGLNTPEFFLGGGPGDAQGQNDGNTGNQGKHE

human panelists = experiment: Umami/savory flavor experiments using human panelists (trained panel, difference from reference); type: in vivo; settings: savory taste; for Taste Data: concentration of cpd that with 12 mM MSG is as strong as 12 mM MSG + 100 μM IMP: aqueous solution with 12 mM MSG; for Taste Data: concentration of cpd (alone) as strong as 12 mM MSG: without MSG
Procedure: General Panelist Selection: Basic screening of sensory taste testers: Potential panelists were tested for their abilities to rank and rate intensities of solutions representing the five basic tastes. Panelists ranked and rated intensity of five different concentrations of each of the five following compounds: sucrose (sweet), sodium chloride (salty), citric acid (sour), caffeine (bitter), and monosodium glutamate (savory). In order to be selected for participation in testing, panelists needed to correctly rank and rate samples for intensity, with a reasonable number of errors. […]
Trained Panelist Selection: A trained expert panel was used to further evaluate compounds that had been tested with the preliminary taste test.
Panelists for the trained panel were selected from the larger group of qualifying taste panelists. Panelists were further trained on savory taste by ranking and rating experiments using MSG and IMP combinations. Panelists completed a series of ranking, rating, and difference from reference tests with savory solutions. In ranking and rating experiments, panelists evaluated easy MSG concentrations (0, 6, 18, 36 mM) and more difficult MSG concentrations (3, 6, 12, 18 mM MSG) in water.
Compound testing with Trained Panel: Compounds tested by the trained panel were evaluated in difference from reference experiments. […] Test samples were solutions with varying amounts of MSG, IMP, and the compound. Typically, each session compares the reference sample to numerous test samples. […] Compounds were tested against the reference in samples with and without 12 mM MSG. All samples were presented in 10 ml volumes at room temperature. Two sessions were completed for each compound tested to evaluate panel reproducibility.

[2] = molecular target: T2, hT1R2/hT1R3 sweet receptor (Homo sapiens, UniProt Q7RTX0+Q8TE23); experiment: In vitro hT1R2/hT1R3 sweet taste receptor activation assay (FLIPR, dose response); type: cell-based; settings: read-out: EC50 for activation of a hT1R2/hT1R3 sweet receptor expressed in an HEK293 cell line
T2 construct: expressed in transfected cells; host or cells: HEK293 derivative stably expressing Gα15, clone S-9
T2 sequence (Q8TE23 20-839): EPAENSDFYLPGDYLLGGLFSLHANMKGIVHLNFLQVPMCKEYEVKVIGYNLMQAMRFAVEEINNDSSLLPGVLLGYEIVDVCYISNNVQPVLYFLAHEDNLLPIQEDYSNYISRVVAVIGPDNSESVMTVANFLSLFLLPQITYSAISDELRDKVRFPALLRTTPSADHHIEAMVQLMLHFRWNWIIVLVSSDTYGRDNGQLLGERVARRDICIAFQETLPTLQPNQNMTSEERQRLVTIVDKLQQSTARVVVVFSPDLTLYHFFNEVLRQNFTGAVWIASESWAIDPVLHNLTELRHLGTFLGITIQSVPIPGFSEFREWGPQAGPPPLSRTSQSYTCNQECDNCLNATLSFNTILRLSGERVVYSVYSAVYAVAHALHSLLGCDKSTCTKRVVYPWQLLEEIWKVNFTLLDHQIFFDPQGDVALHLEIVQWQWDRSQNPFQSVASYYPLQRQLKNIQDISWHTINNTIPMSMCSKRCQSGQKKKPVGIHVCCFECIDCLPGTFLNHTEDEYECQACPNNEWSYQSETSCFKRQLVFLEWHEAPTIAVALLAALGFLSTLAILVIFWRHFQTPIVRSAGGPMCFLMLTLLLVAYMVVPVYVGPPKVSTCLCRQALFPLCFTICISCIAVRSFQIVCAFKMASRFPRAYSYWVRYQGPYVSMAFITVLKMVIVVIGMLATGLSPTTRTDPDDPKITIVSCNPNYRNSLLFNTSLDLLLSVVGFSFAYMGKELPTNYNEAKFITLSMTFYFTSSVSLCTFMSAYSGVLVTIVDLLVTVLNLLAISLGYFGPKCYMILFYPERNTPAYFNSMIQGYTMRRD
T2 sequence (Q7RTX0 21-852): T1 sequence (Q7RTX0 21-852)
How it was run: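 S-9 cells expressing hT1R2/hT1R3, loaded with 4 µM Fluo-3AM 1 h at room temperature. Calcium response on FLIPR at room temperature in D-PBS, with 10 concentrations from 60 nM to 30 µM in duplicate.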

human subjects = experiment: "Difference from Reference" human taste test (sweetness); type: in vivo
Source text: To determine how the intensity of a test sample of an experimental compound differs from that of a reference sample in terms of sweetness. This type of study requires a larger panel (typically 15-20 Subjects) in order to obtain statistically significant data.
Subjects rate the difference in intensity of the test sample compared to the reference sample for the key attribute on a scale of −5 (much less sweet than the reference) to +5 (much more sweet than the reference). A score of 0 indicates the test sample is equally as sweet as the reference.
Ten or more Subjects are used for the “Difference from Reference” tests. Subjects have been previously familiarized with the key attribute taste and are trained to use the −5 to +5 scale. Subjects refrain from eating or drinking (except water) for at least 1 hour prior to the test. Subjects eat a cracker and rinse with water four times to clean the mouth.
Test solutions can include the experimental compound in water, the experimental compound plus a key tastant (e.g., 4% sucrose, 6% sucrose, 6% fructose, 6% fructose/glucose, or 7% fructose/glucose, at pH 7.1 or 2.8), and a range of key tastant only solutions as references.
Samples of the key tastant without the experimental compound are used to determine if the panel is rating accurately; i.e., the reference is tested against itself (blind) to determine how accurate the panel is rating on a given test day. The solutions are dispensed in 10 ml volumes into 1 oz. sample cups and served to the Subjects at room temperature.
Subjects first taste the reference sample then immediately taste the test sample and rate the difference in intensity of the key attribute on the Difference from Reference scale (−5 to +5). All samples are expectorated. Subjects may retaste the samples but can only use the volume of sample given. Subjects must rinse at least twice with water between pairs of samples. Eating a cracker between sample pairs may be required depending on the samples tasted.
The scores for each test are averaged across Subjects and standard error is calculated. Panel accuracy can be determined using the score from the blind reference test. ANOVA and multiple comparison tests (such as Tukey's Honestly Significant Difference test) can be used to determine differences among pairs, provided the reference sample is the same among all tests. If the identical test pair is tested in another session, a Student's t-test (paired, two-tailed; alpha=0.05) can be used to determine if there is any difference in the ratings between sessions.
A number of different reference sweeteners have been utilized for the measurement of sweet taste enhancement. […]

Row | Structure (SMILES) | EC50 [1] [µM] | melting point [°C] | Taste Data: concentration of cpd that with 12 mM MSG is as strong as 12 mM MSG + 100 μM IMP (human panelists) | Taste Data: concentration of cpd (alone) as strong as 12 mM MSG (human panelists) | EC50 [2] [µM] | Perceived Equivalent Sweet Solution (human subjects; 50 μM compound + 4% sucrose, pH not measured or controlled) [% sucrose] | Perceived Equivalent Sweet Solution (human subjects; 10 μM compound + 7% fructose/glucose, pH 2.8) | Perceived Equivalent Sweet Solution (human subjects; 10 μM compound + 7% fructose/glucose, pH 7.1) | Perceived Equivalent Sweet Solution (human subjects; 3 μM compound + 6% fructose/glucose, pH 7.1)
1 | COc1cc(C)ccc1CNC(=O)C(=O)NCCc1ccccn1 [Example 132, N-(2-methoxy-4-methylbenzyl)-N′-(2-(pyridin-2-yl)ethyl)oxalamide] | 0.04 | 128 to 131 | 12 mM MSG + 1 μM cpd as strong as | 1 μM cpd as strong as 12 mM MSG | – | – | – | – | –
2 | COc1cc(C)ccc1CNC(=O)C(=O)NCCc1ccc(C)cn1 [Example 157, N^1-(2-methoxy-4-methylbenzyl)-N^2-(2-(5-methylpyridin-2-yl)ethyl)oxalamide] | 0.03 | 133.5 to 134 | 12 mM MSG + 0.3 μM cpd as strong | 0.3 μM cpd as strong as 12 mM MSG | – | – | – | – | –
3 | Cc1nocc1C(=O)N[C@@H]1CCCc2ccccc21 [Example 175, 3-Methyl-isoxazole-4-carboxylic acid (1,2,3,4-tetrahydro-naphthalen-1-yl)-amide] | – | – | – | – | 5.8 | 6 | – | – | –
4 | Cc1cc(C)c2c(c1)[C@H](NC(=O)c1conc1C)CCC2 [Example 176, (R)—N—(5,7-Dimethyl-1,2,3,4-tetrahydronaphthalen-1-yl)-3-methylisoxazole-4-carboxamide] | – | 124 to 125 | – | – | 0.52 | – | Equal to 10.5% fructose/glucose | Equal to 10% fructose/glucose | –
5 | COc1cccc2c1CCC[C@H]2NC(=O)c1cccc(Cl)c1O [Example 177, (R)-3-Chloro-2-hydroxy-N-(5-methoxy-1,2,3,4-tetrahydronaphthalen-1-yl) benzamide] | – | 175 to 176 | – | – | 0.18 | – | – | – | Equal to 10% fructose/glucose
